Measurements reported in patent publication US20100297676A1, “METHODS FOR DIAGNOSIS, PROGNOSIS AND METHODS OF TREATMENT” (Nodality, Inc., priority 2009, published 2010).

How the values were obtained:
healthy B cells = conditions: B cells from healthy donors; anti-μ 10 μg/ml plus H2O2 […], 10 min
Method: Cryopreserved PBMCs, 23 from CLL patients and 7 from healthy donors, were rapidly thawed in a 37° C. water bath. 1 mL of pre-warmed thawing media (PBS 1% FBS, 2 mM EDTA) was added dropwise to each of the cryovials. Thawed cells were transferred to a tube containing 8 mL thawing media. Tubes were inverted and centrifuged at 200×g for 8 minutes at room temperature. Supernatant was decanted, cell pellets were resuspended in 1 mL RPMI 1640 1% FCS and filtered over 70 um nylon mesh (BD Falcon) to remove cell clumps and debris. 11 mL of additional RPMI 1640 1% FCS was added to the samples to wash. […]
Supernatant was aspirated and each sample was resuspended in 4 mL of PBS. […] The supernatant was decanted and all samples were resuspended at a density of 2.4×10^6 cells/mL, using a volume specific to the number of cells determined from the cell counting procedure. […]
“Daughter” plates designated for treatment with modulators for or apoptosis inducing agents were generated from the “mother” plate with the use of a Liquidator 96-well pipettor (Rainin) Plates designated for treatment with modulators for phospho-readouts received 250 uL (6.0×10^5 cells) of cell suspension per well, and plates designated for treatment with apoptosis inducing agents received 333 uL (8.0×10^5 cells) of cell suspension per well. […]
Antibody cocktails for signaling and apoptosis readouts were prepared in FACS Buffer. […]

CLL cells = conditions: in vitro treatment; Buchner 2009, Gobessi 2009; cited from earlier work

SMILES	effect of H2O2 on anti-μ-mediated BCR signaling (healthy B cells)	apoptotic response of CLL cells (CLL cells)
OO [H2O2, hydrogen peroxide]	further potentiated	
COc1cc(Nc2ncc(F)c(Nc3ccc4c(n3)NC(=O)C(C)(C)O4)n2)cc(OC)c1OC [R406]		mediated an apoptotic response
